Measurements reported in ChEMBL document CHEMBL3351842, “Synthesis and biological characterization of new aryloxyindole-4,9-diones as potent trypanosomicidal agents” (Bioorg Med Chem Lett, 2014).

What was measured:
J774 = test: Cytotoxicity against mouse J774 cells assessed as cell viability after 48 hrs by MTT assay; type: cell-based; details: J774, 48 h
[1] = Selectivity index, ratio of IC50 for mouse J774A cells to IC50 for Trypanosoma cruzi Y epimastigotes; type: toxicity, cell-based; details: J774A cells versus Trypanosoma cruzi Y epimastigotes, read-out: Ratio IC50
Trypanosoma cruzi [2] = test: Trypanocidal activity against Trypanosoma cruzi Y epimastigotes […] assessed as growth inhibition of parasite measured on day 5; type: functional, organism-based; details: 120 h
Trypanosoma cruzi [3] = test: Trypanocidal activity against Trypanosoma cruzi Y epimastigotes […] assessed as growth inhibition of parasite at 10 uM measured on day 5; type: functional; details: 120 h, read-out: GI
Trypanosoma cruzi [4] = test: microbe, parasite or virus in culture; details: Y, J774, in Mus musculus, 120 h, read-out: GI
Description: Trypanocidal activity against Trypanosoma cruzi Y epimastigotes infected in mouse J774 cells assessed as growth inhibition of parasite at 5 uM measured on day 5

Row | SMILES | IC50 (J774) [nM] | selectivity ratio [1] | IC50 (Trypanosoma cruzi [2]) [nM] | inhibition of growth at 10 µM (Trypanosoma cruzi [3]) [%] | inhibition of growth at 5 µM (Trypanosoma cruzi [4]) [%]
1 | O=C1C=C(Oc2ccccc2)C(=O)c2ccccc21 | 12500 | 250 | 50 | 87.2 | 
2 | CCOC(=O)c1cc2c(OC)cc(Br)c(OC)c2[nH]1 |  |  |  | 26.9 | 
3 | CCOC(=O)c1cc2c(OC)cc(Br)c(OC)c2n1CC |  |  |  | 2.9 | 
4 | CCOC(=O)c1cc2c(n1CC)C(=O)C(Br)=CC2=O |  |  | 530 | 97.1 | 
5 | CCOC(=O)c1cc2c(n1CC)C(=O)C(Oc1ccccc1)=CC2=O | 22000 | 100 | 220 | 84.7 | 
6 | CCOC(=O)c1cc2c(n1CC)C(=O)C(Oc1ccc(C)cc1)=CC2=O |  |  | 20 | 92.1 | 
7 | CCOC(=O)c1cc2c(n1CC)C(=O)C(Oc1ccccc1C)=CC2=O | 12500 | 89.3 | 140 | 100 | 
8 | CCOC(=O)c1cc2c(n1CC)C(=O)C(Oc1ccc(OC)cc1)=CC2=O | 12500 | 625 | 20 | 90.5 | 
9 | CCOC(=O)c1cc2c(n1CC)C(=O)C(Oc1ccc(Cl)cc1)=CC2=O |  |  | 130 | 94.6 | 
10 | CC1CS(=O)(=O)CCN1/N=C/c1ccc([N+](=O)[O-])o1 (configuration not stated) [NIFURTIMOX] |  | 40 | 7000 |  | 49.9
